Reference: US20250235427A1, “5-METHOXY-N,N-[…][…] THE TREATMENT OF SOCIAL/EMOTIONAL […] DETACHMENT” (GH RESEARCH IRELAND LIMITED, priority 2022, published 2025)

System: patients with postpartum depression (PPD)
Assay: Clinical trial, inhaled 5-MeO-DMT individualized dosing regimen in postpartum depression (one patient so far)
Method: The single-arm, open-label clinical trial will involve 15 adult female patients with clinically diagnosed postpartum depression (PPD).
The second dose (12 mg) will only be administered if: • a. […] The 6 mg dose was safe and well-tolerated according to the investigator, • c. Any psychoactive effects (PsE) of the prior dose have subsided, and • d. Pre-dose vital parameters and forced expiratory volume in one second (FEV1) are in normal range, or if outside of the normal range, are not clinically significant according to the investigator. • 3. Similarly, a third dose (18 mg) will only be administered if: • a. […] The 12 mg dose was safe and well-tolerated according to the investigator, and • c. Any PsE of the prior dose have subsided, and • d. Pre-dose vital parameters and forced expiratory volume in one second (FEV1) are in normal range, or if outside of the normal range, are not clinically significant according to the investigator.
The patients will be assessed for a peak psychedelic experience (based on a patient-scored visual analogue scale, the PE scale), sedation, and other endpoints after dosing. Follow-up visits are planned for Day 1, and Day 7 after the dosing day.

SMILES: COc1ccc2[nH]cc(CCN(C)C)c2c1 [5-MeO-DMT]
- BPRS Disorientation score (Day 7, baseline 1): 1
- BPRS Grandiosity improvement (Day 7, baseline 1): 0
- BPRS Grandiosity score (Day 7, baseline 1): 1
- BPRS Hallucinatory behaviour improvement (Day 7, baseline 1): 0
- BPRS Hallucinatory behaviour score (Day 7, baseline 1): 1
- BPRS Hostility improvement (Day 7, baseline 1): 0
- BPRS Hostility score (Day 7, baseline 1): 1
- BPRS Mannerisms and Posturing improvement (Day 7, baseline 1): 0
- BPRS Mannerisms and Posturing score (Day 7, baseline 1): 1
- BPRS Motor retardation improvement (Day 7, baseline 1): 0
- BPRS Motor retardation score (Day 7, baseline 1): 1
- BPRS Suspiciousness improvement (Day 7, baseline 1): 0
- BPRS Suspiciousness score (Day 7, baseline 1): 1
- BPRS Uncooperativeness improvement (Day 7, baseline 1): 0
- BPRS Uncooperativeness score (Day 7, baseline 1): 1
- BPRS Unusual Thought Content improvement (Day 7, baseline 1): 0
- BPRS Unusual Thought Content score (Day 7, baseline 1): 1
- BPRS Excitement improvement (Day 7, baseline 2): 1
- BPRS Excitement score (Day 7, baseline 2): 1
- MADRS Inability to Feel improvement (Day 7, baseline 3): 3
- MADRS Inability to Feel score (Day 7, baseline 3): 0
- MADRS Lassitude improvement (Day 7, baseline 3): 3
- MADRS Lassitude score (Day 7, baseline 3): 0
- MADRS Pessimistic Thoughts improvement (Day 7, baseline 4): 4
- MADRS Pessimistic Thoughts score (Day 7, baseline 4): 0
- MADRS Reported sadness improvement (Day 7, baseline 4): 4
- MADRS Reported sadness score (Day 7, baseline 4): 0
- BPRS Emotional withdrawal improvement (Day 7, baseline 5): 4
- BPRS Emotional withdrawal score (Day 7, baseline 5): 1
- MADRS Apparent sadness improvement (Day 7, baseline 5): 5
- MADRS Apparent sadness score (Day 7, baseline 5): 0
- MADRS Inner Tension improvement (Day 7, baseline 5): 4
- MADRS Inner Tension score (Day 7, baseline 5): 1
- MADRS Reduced Sleep improvement (Day 7, baseline 5): 5
- MADRS Reduced Sleep score (Day 7, baseline 5): 0
- BPRS Depressive Mood improvement (Day 7, baseline 6): 5
- BPRS Depressive Mood score (Day 7, baseline 6): 1
- BPRS Guilt feelings improvement (Day 7, baseline 6): 5
- BPRS Guilt feelings score (Day 7, baseline 6): 1
- BPRS Somatic Concern improvement (Day 7, baseline 6): 5
- BPRS Somatic Concern score (Day 7, baseline 6): 1
- BPRS Tension improvement (Day 7, baseline 6): 5
- BPRS Tension score (Day 7, baseline 6): 1
- BPRS Anxiety improvement (Day 7, baseline 7): 6
- BPRS Anxiety score (Day 7, baseline 7): 1
- BIMF functional domain Adjustment Δ (Day 7) (Day 7 vs Day 0): 1
- BIMF functional domain Infant Care Δ (Day 7) (Day 7 vs Day 0): 0
- BIMF functional domain Management Δ (Day 7) (Day 7 vs Day 0): 5
- BIMF functional domain Mother-Child Interaction Δ (Day 7) (Day 7 vs Day 0): 2
- BIMF functional domain Psychological Well-being Δ (Day 7) (Day 7 vs Day 0): 9
- BIMF functional domain Self Care Δ (Day 7) (Day 7 vs Day 0): 4
- BIMF functional domain Social Support Δ (Day 7) (Day 7 vs Day 0): 1
- BIMF item 1 (I am a good mother) Δ (Day 7) (Day 7 vs Day 0): 0
- BIMF item 2 (I feel rested) Δ (Day 7) (Day 7 vs Day 0): 2
- BIMF item 3 (I am comfortable with the way I've chosen to feed my baby) Δ (Day 7) (Day 7 vs Day 0): 0
- BIMF item 4 (My baby and I understand each other) Δ (Day 7) (Day 7 vs Day 0): 0
- BIMF item 5 (I am able to relax and enjoy time with my baby) Δ (Day 7) (Day 7 vs Day 0): 1
- BIMF item 6 (There are people in my life that I can trust to care for my baby when I need a break) Δ (Day 7) (Day 7 vs Day 0): 0
- BIMF item 8 (I am getting enough adult interaction) Δ (Day 7) (Day 7 vs Day 0): 0
- BIMF item 9 (I am getting enough encouragement from other people) Δ (Day 7) (Day 7 vs Day 0): 1
- BIMF item 10 (I trust my own feelings (instincts) when it comes to taking care of my baby) Δ (Day 7) (Day 7 vs Day 0): 1
- BIMF item 11 (I take a little time each week to do something for myself) Δ (Day 7) (Day 7 vs Day 0): 1
- BIMF item 12 (I am taking good care of my baby's physical needs) Δ (Day 7) (Day 7 vs Day 0): 0
- BIMF item 13 (I am taking good care of my physical needs) Δ (Day 7) (Day 7 vs Day 0): 1
- BIMF item 14 (I make good decisions about my baby's health and well being) Δ (Day 7) (Day 7 vs Day 0): 0
- BIMF item 15 (My baby and I are getting into a routine) Δ (Day 7) (Day 7 vs Day 0): 1
- BIMF item 16 (I worry about how other people judge me (as a mother)) Δ (Day 7) (Day 7 vs Day 0): 2
- BIMF item 17 (I am able to take care of my baby and my other responsibilities) Δ (Day 7) (Day 7 vs Day 0): 0
- BIMF item 18 (Anxiety or worry often interferes with my mothering ability) Δ (Day 7) (Day 7 vs Day 0): 3
- BIMF item 19 (As time goes on, I am getting better at taking care of my baby) Δ (Day 7) (Day 7 vs Day 0): 1
- BIMF item 20 (I am satisfied with the job I am doing as a new mother) Δ (Day 7) (Day 7 vs Day 0): −1
- BPRS Blunted affect improvement (Discharge, baseline 1): 0
- BPRS Blunted affect score (Discharge, baseline 1): 1
- BPRS Conceptual disorganization improvement (Discharge, baseline 1): 0
- BPRS Conceptual disorganization score (Discharge, baseline 1): 1
- BPRS Disorientation improvement (Discharge, baseline 1): 0
- BPRS Disorientation score (Discharge, baseline 1): 1
- BPRS Grandiosity improvement (Discharge, baseline 1): 0
- BPRS Grandiosity score (Discharge, baseline 1): 1
- BPRS Hallucinatory behaviour improvement (Discharge, baseline 1): 0
- BPRS Hallucinatory behaviour score (Discharge, baseline 1): 1
- BPRS Hostility improvement (Discharge, baseline 1): 0
- BPRS Hostility score (Discharge, baseline 1): 1
- BPRS Mannerisms and Posturing improvement (Discharge, baseline 1): 0
- BPRS Mannerisms and Posturing score (Discharge, baseline 1): 1
- BPRS Motor retardation improvement (Discharge, baseline 1): 0
- BPRS Motor retardation score (Discharge, baseline 1): 1
- BPRS Suspiciousness improvement (Discharge, baseline 1): 0
- BPRS Suspiciousness score (Discharge, baseline 1): 1
- BPRS Uncooperativeness improvement (Discharge, baseline 1): 0
- BPRS Uncooperativeness score (Discharge, baseline 1): 1
- BPRS Unusual Thought Content improvement (Discharge, baseline 1): 0
- BPRS Unusual Thought Content score (Discharge, baseline 1): 1
- BPRS Excitement improvement (Discharge, baseline 2): 1
- BPRS Excitement score (Discharge, baseline 2): 1
- BPRS Emotional withdrawal improvement (Discharge, baseline 5): 4
- BPRS Emotional withdrawal score (Discharge, baseline 5): 1
- BPRS Depressive Mood improvement (Discharge, baseline 6): 5
- BPRS Depressive Mood score (Discharge, baseline 6): 1
- BPRS Guilt feelings improvement (Discharge, baseline 6): 5
- BPRS Guilt feelings score (Discharge, baseline 6): 1
- BPRS Somatic Concern improvement (Discharge, baseline 6): 5
- BPRS Somatic Concern score (Discharge, baseline 6): 1
- BPRS Tension score (Discharge, baseline 6): 1
- BPRS Anxiety improvement (Discharge, baseline 7): 6
- BPRS Anxiety score (Discharge, baseline 7): 1
- ECG, safety laboratory analyses, CADSS (ECG 3 hours, laboratory 7 days, CADSS 3 hours, 1 day and 7 days): unremarkable
- changes in vital parameters (shortly after administration): temporary, clinically non-relevant increase in heart rate and blood pressure
